The record followed here is the Deep4Chem optical property database.

This series in a line: solvent given as SMILES.

For the molecule `NCc1ccc2ccc3cccc4ccc1c2c34`, the absorption maximum by setting is: (in CC#N) 341 nm; (in CO) 340 nm; (in ClC(Cl)Cl) 344 nm.

Take `C1=CC2=Nc3cccc[n+]3CN2C=C1`: the absorption maximum (in CO) came to 412 nm.

Molecule `CCCCN(CCCC)c1ccc(C#Cc2cc(C#Cc3ccc(N(CCCC)CCCC)cc3)c(C#Cc3cc(C(F)(F)F)cc(C(F)(F)F)c3)cc2C#Cc2cc(C(F)(F)F)cc(C(F)(F)F)c2)cc1` came in with an absorption maximum (in ClCCl) of 433 nm.

In the case of `Cc1cccc(-c2[nH]c(=O)n3c2-c2ccccc2C3=O)c1O`, the absorption maximum runs as follows: (in CC#N) 391 nm; (in CO) 395 nm; (in ClCCl) 392 nm.

For `c1ccc(-c2nc3c(ccc4[nH]ccc43)o2)cc1`, the absorption maximum runs as follows: (in C1CCCCC1) 331 nm; (in C1COCCO1) 333 nm; (in CC#N) 320 nm; (in CO) 325 nm; (in Cc1ccccc1) 322 nm; (in O) 321 nm.

Turning to `CC/[NH+]=c1\cc2oc3cc(NCCOC(=O)C(NC(=O)OC(C)(C)C)C(C)C)c4ccccc4c3nc-2cc1C` (configuration not stated), the absorption maximum runs as follows: (in CCO) 590 nm; (in O) 590 nm.

On to `CCCC(=O)c1c2c(c(C(=O)CCC)c3c1OC(CC(=O)OC)(C(=O)O)O3)OCO2`, for which the absorption maximum reads like this: (in CC#N) 424 nm; (in CCO) 445 nm; (in CO) 442 nm; (in ClCCl) 423 nm; (in O) 448 nm.

For the molecule `COc1ccc2c(c1)[nH]c1c3[nH]c4cc(OC)ccc4c3c3nsnc3c21`, the absorption maximum is, setting by setting: (in CN(C)C=O) 436 nm; (in Cc1ccccc1) 425 nm; (in ClCCl) 430 nm.

Regarding `CC(C)(C)c1ccc(C#Cc2nc(C#Cc3ccc(C(C)(C)C)cc3)c(C#Cc3ccc(C(C)(C)C)cc3)c(C#Cc3ccc(C(C)(C)C)cc3)c2C#Cc2ccc(C(C)(C)C)cc2)cc1`, for the setting “in ClCCl”, the absorption maximum worked out at 421 nm.

Molecule `CCOC(=O)c1cc2ccc3ccccc3c2c(C#N)c1N` yielded an absorption maximum (in Cc1ccccc1) of 435 nm.

With `O=C1C=C(Nc2cc(F)cc(F)c2)C(=O)c2ccccc21`, the absorption maximum (in CO) turned out to be 448 nm.

`O=C1c2cc3ccccc3cc2C2=Nc3cccc[n+]3[B-](F)(F)N12` had an absorption maximum (in ClCCl) of 396 nm.

Take `CCc1c(C)c2n(c1C)[B-](F)(F)[N+]1=C(NCc3ccc(OC)cc3)C(SC#N)=CC1=C2C`: the absorption maximum was determined as 562 nm (in CC#N); 572 nm (in CCCCCC); 565 nm (in CCOC(C)=O); 562 nm (in CO); 568 nm (in ClCCl).

As for `COc1cc(/C=C/c2cc(OC)c(-c3nc(-c4ccccc4)c(-c4ccccc4)[nH]3)cc2OC)c(OC)cc1/C=C/c1cc(OC)c(-c2nc(-c3ccccc3)c(-c3ccccc3)[nH]2)cc1OC`, the absorption maximum worked out at 444 nm (in C1CCOC1), 441 nm (in CC#N) and 447 nm (in Cc1ccccc1).

In turn, `CC(C)(C)c1ccc(-c2cc3cc4c(cc(-c5ccc(C(C)(C)C)cc5)p4-c4ccccc4)cc3p2-c2ccccc2)cc1` (configuration not stated) came in with an absorption maximum (in C1CCOC1) of 396 nm.

As to `CCCCCCOc1ccc2c(c1)C1=[N+]3C2=Cc2c4ccc(OCCCCCC)cc4c4n2[B-]3(Oc2ccccc21)Oc1ccccc1-4` (configuration not stated), the absorption maximum (in C1CCOC1) came out at 748 nm.

Consider `F[Si-](F)(c1ccccc1)(c1ccccc1)c1cccc2ccccc12`, for which the absorption maximum (in C1CCOC1) is on record as 286 nm.

The molecule `C1=C2c3cc4ccccc4cc3C3=[N+]2[B-]2(Oc4ccccc43)Oc3ccccc3-c3c4cc5ccccc5cc4c1n32` (configuration not stated) showed an absorption maximum (in C1CCOC1) of 830 nm.

`CC(C)(C)c1ccc2c(c1)c1cc(C(C)(C)C)ccc1n2-c1ccc(S(=O)(=O)c2cccc(S(=O)(=O)c3ccc(-n4c5ccc(C(C)(C)C)cc5c5cc(C(C)(C)C)ccc54)cc3)c2)cc1`: under “in Cc1ccccc1”, the absorption maximum is recorded as 348 nm.

In turn, `CCCCn1c2ccc(C#Cc3cccs3)cc2c2c1c1c3ccc(C#Cc4cccs4)cc3n(CCCC)c1c1c3ccc(C#Cc4cccs4)cc3n(CCCC)c21` showed an absorption maximum (in C1CCOC1) of 348 nm.

As to `CN(C)c1ccc(C2=Nc3scc(-c4ccc(C#N)cc4)[n+]3[B-](F)(F)O2)cc1`, the absorption maximum (in C1CCOC1) stood at 411 nm, the absorption maximum (in CC#N) stood at 411 nm, the absorption maximum (in Cc1ccccc1) is listed as 414 nm and the absorption maximum (in ClCCl) amounted to 415 nm.

Turning to `Nc1cc2oc3cc(O)c(F)cc3c(=O)c2cc1F`, the absorption maximum (in CCO) is 366 nm.

`c1ccc(N2c3ccc4ccccc4c3-c3c4ccccc4cn[n+]3[B-]2(c2ccccc2)c2ccccc2)cc1` registered an absorption maximum (in Cc1ccccc1) of 524 nm.

As for `CCN(CC)c1ccc2cc(-c3cc(SC)c(C#N)c(=O)o3)c(=O)oc2c1`, the absorption maximum turned out to be 512 nm (in C1CCOC1); 514 nm (in CC#N); 514 nm (in CC(C)=O); 509 nm (in CCOC(C)=O); 521 nm (in CN(C)C=O); 514 nm (in CO). Moreover, the absorption maximum by setting is: (in CS(C)=O) 527 nm; (in Cc1ccccc1) 509 nm; (in ClC(Cl)Cl) 517 nm; (in ClCCl) 520 nm.

In the case of `c1ccc2c(c1)Sc1ccccc1N2c1ccc2c(c1)C1(c3ccccc3-c3ccccc31)c1cc(N3c4ccccc4Sc4ccccc43)ccc1-2`, the absorption maximum (in Cc1ccccc1) is reported as 309 nm.

For the molecule `COc1ccc(-c2cc3c(s2)c(C(C)=O)cc(=O)n3C)cc1`, the absorption maximum is, setting by setting: (in CC#N) 412 nm; (in ClCCl) 418 nm.

On to `COc1ccc(-c2nc(-c3ccc(-c4nc(-c5ccc(OC)cc5)c(-c5ccc(OC)cc5)[nH]4)s3)[nH]c2-c2ccc(OC)cc2)cc1`, for which, for the setting “in CC#N”, the absorption maximum was 365 nm.

As for `COc1ccc(-c2csc(/C(C#N)=C/c3ccccc3Cl)n2)cc1`, the absorption maximum (in CC#N) came out at 372 nm.

`CCN(CC)c1ccc2cc(/C=C/c3ccccc3)c(=O)oc2c1`: the absorption maximum (in CC#N) stood at 421 nm.

For `COc1ccc(C2=C(c3ccccc3)C(c3ccccc3)=[N+]3C2=Nc2c(-c4ccc(OC)cc4)c(-c4ccccc4)c(-c4ccccc4)n2[B-]3(F)F)cc1`, for the setting “in Cc1ccccc1”, the absorption maximum is 656 nm.

`N#Cc1cc(N2c3ccccc3Sc3ccccc32)c(N2c3ccccc3Sc3ccccc32)cc1C#N` showed an absorption maximum (in c1ccc2c(c1)c1ccccc1n2-c1ccc(-c2ccc(-n3c4ccccc4c4ccccc43)cc2)cc1) of 551 nm.

Molecule `COc1ccc(C#Cc2nc(C#Cc3ccc(OC)cc3)c(C#Cc3ccc(OC)cc3)c(C#Cc3ccc(OC)cc3)c2C#Cc2ccc(OC)cc2)cc1` had an absorption maximum (in ClCCl) of 421 nm.

`c1ccc2c(c1)[nH]c1ncccc12`: the absorption maximum runs as follows: (in CC#N) 338 nm; (in CCCCCC) 336 nm.

The molecule `CCCCC1(CCCC)c2ccccc2-c2ccc(-c3c4c(nc5ccccc35)-c3cc5c(cc3CC4)-c3nc4ccccc4c(-c4ccc6c(c4)C(CCCC)(CCCC)c4ccccc4-6)c3CC5)cc21` came in with an absorption maximum (in ClC(Cl)Cl) of 377 nm.

`CCCCC(CC)Cn1c2cc(C#N)c(-c3ccc(N(c4ccccc4)c4ccccc4)cc3)cc2c2cc(-c3ccc(N(c4ccccc4)c4ccccc4)cc3)c(C#N)cc21` (configuration not stated) showed an absorption maximum (in ClCCl) of 420 nm.

In the case of `CC/[NH+]=c1\cc2oc3cc(NCCC(=O)NC(CCC(=O)OC)C(=O)OC)c4ccccc4c3nc-2cc1C` (configuration not stated), the absorption maximum is, setting by setting: (in CCO) 600 nm; (in O) 600 nm.

Molecule `Cc1ccc(N2C(c3ccccc3NS(=O)(=O)c3ccc(C)cc3)=NC(c3ccccc3)C2c2ccccc2)cc1` (configuration not stated) had an absorption maximum (in Cc1ccccc1) of 300 nm.

`CCCCN1c2ccccc2Sc2cc(/C=C\c3cc(=O)oc4cc(C)ccc34)ccc21` came in with an absorption maximum (in ClC(Cl)Cl) of 424 nm.

The molecule `c1ccc2c3c(ccc2c1)C1(c2cc(-c4ccc5ccc6cccc7ccc4c5c67)ccc2-c2ccc(-c4ccc5ccc6cccc7ccc4c5c67)cc21)c1ccc2ccccc2c1O3` had an absorption maximum (in ClC(Cl)Cl) of 365 nm.

As for `COc1ccc(-c2cccc3ncc(-c4ccc(C#N)cc4)n23)cc1`, the absorption maximum (in ClCCl) was determined as 329 nm.

On to `CCN(CC)c1ccc(OC)c(C=O)c1`, for which the absorption maximum came to 412 nm (in CC#N); 418 nm (in CC(C)O); 400 nm (in CCCCCC); 406 nm (in CCOC(C)=O); 420 nm (in CO); 424 nm (in CS(C)=O). Further, the absorption maximum (in Cc1ccccc1) came to 411 nm and the absorption maximum (in ClCCl) is on record as 415 nm.

Molecule `Clc1ccc(/C=C/c2cnc3ccccc3n2)cc1` showed an absorption maximum (in ClCCl) of 355 nm.

In the case of `c1ccc(-c2nc3sc4ccccc4c3s2)cc1`, the absorption maximum (in CS(C)=O) is 348 nm.

For the setting “in C1COCCO1”, `c1ccc(-c2nc(-c3ccc(-c4ccc(-c5ccc(-c6nc(-c7ccccc7)c(-c7ccccc7)o6)cc5)cc4)cc3)oc2-c2ccccc2)cc1` returned an absorption maximum of 352 nm.

As to `CCCCCCCCn1c2ccccc2c(=O)c2ccccc21`, the absorption maximum (in CS(C)=O) was found to be 404 nm.

Take `CCCCN1/C(=C/C=C/C2=[N+](C)c3ccccc3C2(C)C)C(C)(C)c2cc(OC)ccc21`: for the setting “in CS(C)=O”, the absorption maximum is given as 566 nm.

Take `CC[B-]1(CC)c2cccc3c4c5c(cccc5c(c23)-c2cccc(C)[n+]21)[B-](CC)(CC)[n+]1c(C)cccc1-4`: the absorption maximum (in ClCCl) was found to be 538 nm.

Molecule `COC(=O)c1[nH]c(-c2ccccc2)c2nnc3ccc(OC)cc3c12` came in with an absorption maximum (in ClCCl) of 392 nm.

For the setting “in C1CCCCC1”, `CC(C)(C)[Si](C)(C)c1cccc2ccccc12` had an absorption maximum of 295 nm.

Where the note is “in Cc1ccccc1”, `COc1ccc(N(c2ccc(/C=C(\C)c3ccccc3)cc2)c2ccc(/C=C(\C)c3ccccc3)cc2)cc1` yielded an absorption maximum of 364 nm.

Regarding `Fc1ccc(N(c2ccccc2)c2ccc3ccc4c(N(c5ccccc5)c5ccc(F)cc5)ccc5ccc2c3c54)cc1`, under “in ClCCl”, the absorption maximum amounted to 423 nm.

`CCCCCCCCCCCCn1cccc1/C=C/c1ccc(OCCCC)c2c(/C=C/c3cccn3CCCCCCCCCCCC)ccc(OCCCC)c12` registered an absorption maximum (in Cc1ccccc1) of 375 nm.

Under “in ClCCl”, `Cc1ccc([N+]2=c3c4n(c5ccccc35)[B-](F)(F)[N+](c3ccc(C)cc3)=c3c=4n(c4ccccc34)[B-]2(F)F)cc1` came in with an absorption maximum of 743 nm.
